In patent publication EP0054512A2, “Cephalosporin esters, process for their preparation and pharmaceutical compositions containing them” (CIBA-GEIGY AG, priority 1980, dated 1982):

System: Escherichia coli, Proteus spp. und anderen
Assay: Systemic gram-negative infection in the mouse, oral administration
Design: species or system Maus
Details: in vivo, oral administration to the mouse, systemic gram-negative infections, range across pathogens
Text: Die Verbindungen der Formel I, worin Am eine freie Aminogruppe ist und ihre pharmazeutisch verwendbaren, nichttoxischen Salze sind wertvolle, antibiotisch wirksame Substanzen, die insbesondere als antibakterielle Antibiotika verwendet werden können.

Compound CCOC(=O)OC(C)OC(=O)C1=CCS[C@@H]2[C@H](NC(=O)/C(=N\OC)c3csc(N)n3)C(=O)N12 (stereo partly shown) [7ß-[2-(2-Amino-4-thiazolyl)-2-methoxyiminoacetamido]-3-cephem-4-carbonsäure-1-äthoxycarbonyloxyäthylester] has an ED50 of 0.3 to 150 mg/kg.
